Reference: article PMC8955485, “Journey on VX-809-Based Hybrid Derivatives towards Drug-like F508del-CFTR Correctors: From Molecular Modeling to Chemical Synthesis and Biological Assays” (Pharmaceuticals, 2022)
pEC50: −log10 of the molar value.

Experiments:
Assay type in all cases: cell-based
Parameters in all cases: expressed in transfected cells
[1] = biological target: T1, F508del-CFTR (Homo sapiens, UniProt P13569, DEL508-508); test: Western blot analysis of CFTR expression pattern (C band/B band ratio); conditions: F508del-CFTR/HS-YFP CFBE41o- cells; 24 h; 50 nM and 1 µM; versus DMSO
Text: We then biochemically estimated the rescue of the trafficking defect by analyzing the electrophoretic mobility of mutant CFTR protein. In Western blots, CFTR protein can be detected as two bands B and C, of approximately 150 and 170 kDa, respectively. Band B corresponds to immature, partially glycosylated CFTR, while band C corresponds to the mature fully glycosylated CFTR. In cells expressing wild-type CFTR protein, the prevalent form is band C, while the main form in cells expressing F508del-CFTR is band B, in agreement with the severe trafficking defect caused by this mutation (Figure 8). To estimate the effect of our molecules on CFTR expression pattern, we treated F508del-CFTR/HS-YFP expressing CFBE41o-cells for 24 h with test compounds 9b, 9g, and 9j (50 nM and 1 µM) VX-809 as a positive control or DMSO as a vehicle alone.
The next day, cells were lysed and the obtained lysates were subjected to SDS-PAGE followed by Western blotting (Figure 8A). Western blot images were analyzed with ImageJ software. CFTR bands, analyzed as ROI, were quantified in each lane after normalization for GAPDH as a loading control. […]
Supernatant protein concentration was calculated using the BCA assay (Euroclone, Milan, Italy). For each sample, 10 μg of total proteins was resolved in 4–20% gradient Criterion TGX precast gels, transferred to nitrocellulose membranes (using a Trans-Blot Turbo system; Bio-Rad, Hercules, CA, USA), and analyzed by Western blotting. Proteins were detected using the antibodies described above and subsequently visualized by chemiluminescence using the SuperSignal West Femto Substrate (Thermo Fisher Scientific, Waltham, MA, USA). […] Images were analyzed with ImageJ software (NIH). Bands were analyzed as ROI, normalized against the GAPDH loading control.
Figure 8 Biochemical analysis of the F508del-CFTR expression pattern: (A). […] Quantification of the C band/B band ratio in experiments as in (A). […]

[2] = biological target: T1, F508del-CFTR; test: HS-YFP functional assay of corrector combinations with VX-445; conditions: CFBE41o- cells; 24 h; VX-445 3 µM; forskolin 20 µM plus VX-770 1 µM
Protocol: Now, to further characterize the activity of these compounds, we tested the novel derivates 9b, 9g, and 9j, along with VX-809 as a positive control, in combination with VX-445 (3 µM), in CFBE41o-cells stably expressing F508del-CFTR by using the YFP functional assay (Figure 7). To this aim, cells were treated for 24 h with test compounds at different concentrations, in combination with VX-445 (3 µM), and then assayed after maximal stimulation of F508del-CFTR in the presence of forskolin (20 µM) plus VX-770 (1 µM).
(§1) CFBE41o-cells co-expressing mutants CFTR and HS-YFP were plated (50,000 cells/well) on clear-bottom 96-well black microplates (Corning Life Sciences, Acton, MA) and grown at 37 °C in 5% CO2 for 24 h. For the corrector assay, CFBE41o-cells were treated for further 24 h with compounds as indicated. The following day, prior to the assay, the culture medium was removed and cells were stimulated for 30 min at 37 °C with 60 µL PBS (containing 137 mM NaCl, 2.7 mM KCl, 8.1 mM Na2HPO4, 1.5 mM KH2PO4, 1mM CaCl2, and 0.5 mM MgCl2) plus forskolin (20 µM) and VX-770 (1 µM).
(§2) Microplates containing CFBE41o-cells were then transferred to a plate reader (FluoStar Galaxy; BMG Labtech, Offenburg, Germany) equipped with excitation (HQ500/20X: 500 ± 10 nm) and emission (HQ535/30M: 535 ± 15 nm) filters for YFP (Chroma Technology, Brattleboro, VT, USA). During the assay fluorescence was measured continuously for 14 s with 2 s before and 12 s after injection of an iodide containing solution (165 µL of a modified PBS containing I^- instead of Cl^-; final I^- concentration in the well: 100 mM).
(§3) Fluorescence data were normalized for the initial value and fluorescence quenching rate following I^- influx, were determined by fitting the final 10 s of data for each well with an exponential function to extrapolate initial slope (dF/dt).
Figure 7 Functional analysis of corrector combinations. F508del-CFTR activity was determined in CFBE41o-cells with stable expression of the HS-YFP. Cells were treated for 24 h with VX-445 (3 µM) alone or in combination with 9b, or 9g, or 9j, or VX-809 at different concentrations (from 102 nM to 10 µM). The YFP-based assay was performed after stimulation of CFTR activity with forskolin (20 µM) plus VX-770 (1 µM).

[3] = biological target: T1, F508del-CFTR; test: HS-YFP functional assay for F508del-CFTR correctors in CFBE41o- cells; conditions: CFBE41o- cells stably expressing F508del-CFTR and HS-YFP; 24 h incubation; stimulation with forskolin 20 µM plus VX-770 1 µM
Protocol: The ability of these compounds to correct the basic defects related to F508del mutant was evaluated on immortalized CFBE41o-bronchial epithelial cells stably expressing F508del-CFTR and the halide sensitive yellow fluorescent protein (HS-YFP).
The measurements of the rate of HS-YFP quenching caused by iodide influx allowed us to determine the activity of F508del-CFTR, after incubation with the compounds, as cited. Activity was then compared to that of cells treated with the corrector VX-809 (1 µM) or with vehicle alone (DMSO).
Within the novel third series of hybrids herein proposed, based on their potency and efficacy in terms of CFTR rescue, we selected six compounds and determined the dose–response relationships (Figure 6). To this aim, F508del-CFTR expressing CFBE41o-cells were treated for 24 h with our hybrids 9b, 9f, 9g, 9h, 9j, and 9y and then mutant CFTR activity was measured by using the YFP functional assay (see Materials and Methods section for details).
Immortalized bronchial epithelial CFBE41o-cells with stable co-expression of the halide-sensitive yellow fluorescent protein (HS-YFP) and of F508del-CFTR were cultured using MEM medium supplemented with 10% fetal calf serum, 100 U/mL penicillin, 2 mM L-glutamine, and […] streptomycin.
as §1, §2, §3
To evaluate the dose–response relationships, activity slopes obtained for each compound at the different concentrations were fitted with the Hill equation using the Igor software (WaveMetrics) to extrapolate EC50, maximal effect, and Hill coefficient.

T1 sequence (P13569 with tags, fused parts or gaps DEL508-508): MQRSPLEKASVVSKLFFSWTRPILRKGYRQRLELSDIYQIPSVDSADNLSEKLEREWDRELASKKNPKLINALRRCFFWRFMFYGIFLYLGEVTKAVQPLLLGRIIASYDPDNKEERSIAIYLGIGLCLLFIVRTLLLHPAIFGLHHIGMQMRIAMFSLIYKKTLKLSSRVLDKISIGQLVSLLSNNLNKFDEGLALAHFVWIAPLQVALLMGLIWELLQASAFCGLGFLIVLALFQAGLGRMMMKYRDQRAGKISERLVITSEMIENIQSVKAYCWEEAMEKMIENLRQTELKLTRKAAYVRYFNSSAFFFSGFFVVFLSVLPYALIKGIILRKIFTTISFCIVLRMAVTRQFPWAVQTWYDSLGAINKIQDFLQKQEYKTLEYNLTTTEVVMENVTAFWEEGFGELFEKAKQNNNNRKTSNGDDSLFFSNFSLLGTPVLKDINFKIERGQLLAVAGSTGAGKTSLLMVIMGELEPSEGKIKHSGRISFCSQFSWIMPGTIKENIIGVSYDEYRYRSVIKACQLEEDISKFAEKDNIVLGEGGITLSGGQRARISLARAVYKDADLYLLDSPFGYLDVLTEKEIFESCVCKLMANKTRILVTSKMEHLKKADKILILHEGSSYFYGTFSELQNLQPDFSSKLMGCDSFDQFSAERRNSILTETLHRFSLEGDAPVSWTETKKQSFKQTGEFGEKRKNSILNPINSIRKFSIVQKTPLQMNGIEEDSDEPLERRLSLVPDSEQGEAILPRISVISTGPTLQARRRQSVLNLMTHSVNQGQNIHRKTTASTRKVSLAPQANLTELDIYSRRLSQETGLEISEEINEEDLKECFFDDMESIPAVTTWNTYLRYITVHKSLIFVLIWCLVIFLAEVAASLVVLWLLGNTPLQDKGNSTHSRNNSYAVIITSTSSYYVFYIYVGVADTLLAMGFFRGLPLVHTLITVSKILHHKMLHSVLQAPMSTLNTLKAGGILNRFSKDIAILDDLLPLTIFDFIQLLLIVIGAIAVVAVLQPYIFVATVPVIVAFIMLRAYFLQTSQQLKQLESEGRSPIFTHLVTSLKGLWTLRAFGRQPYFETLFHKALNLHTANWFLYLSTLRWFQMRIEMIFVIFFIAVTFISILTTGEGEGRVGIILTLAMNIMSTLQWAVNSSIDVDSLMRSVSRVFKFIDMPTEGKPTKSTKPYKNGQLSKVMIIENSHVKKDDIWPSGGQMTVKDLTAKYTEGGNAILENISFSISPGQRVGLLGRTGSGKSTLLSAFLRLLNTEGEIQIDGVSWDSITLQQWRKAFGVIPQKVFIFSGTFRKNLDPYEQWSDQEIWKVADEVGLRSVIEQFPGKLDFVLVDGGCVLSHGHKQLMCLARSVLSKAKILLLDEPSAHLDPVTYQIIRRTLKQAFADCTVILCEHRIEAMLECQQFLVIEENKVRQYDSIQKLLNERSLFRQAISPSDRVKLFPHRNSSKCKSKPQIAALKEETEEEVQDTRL

C band/B band ratio [1]: significant enhancement
effect of combination with VX-445 on F508del-CFTR activity [2]: clear additive effect
pEC50 [3]: 7.19
Structure (SMILES): COc1ccc(C(=O)c2sc(NC(=O)C3(c4ccc5c(c4)OCO5)CC3)nc2-c2ccc(OC)cc2)cc1 [Compound 9b]
